Results taken from patent US8802713B2, “3-alkoxy-1-phenylpyrazole derivatives and pesticides” (Kumiai Chemical Industry Co., Ltd., priority 2007, dated 2014).

What was measured:
brown rice planthopper = assay: Insecticidal test on brown rice planthopper; type: in vivo; conditions: 144 h
Procedure: A wettable powder prepared in accordance with Formulation Example 2 was diluted with water to a concentration of an active ingredient of 500 ppm. Rice sprouts were dipped in this solution and put in a plastic cup having a capacity of 60 mL. Ten third-instar larvae of brown rice planthopper were released in the cup, the cup was lidded and placed in a thermostatic chamber at 25° C. for 6 days, and the number of dead larvae were counted for calculation of the mortality by Equation 2. The test was carried out by one series system.

two-spotted spider mites = assay: Miticidal test on two-spotted spider mites (seedling dip); type: in vivo, Tetranvchus urticae; conditions: Glycine max, 312 h; 500 ppm active ingredient, soybean seedlings with imago mites dipped, 25° C., 13 days; read-out: protective value
Procedure: A wettable powder prepared in accordance with Formulation Example 2 was diluted with water to a concentration of an active ingredient of 500 ppm. Soybean seedlings which had been inoculated with imago two-spotted spider mites were dipped in the solution and dried in air. The treated soybean seedlings were placed in a thermostatic chamber at 25° C. for 13 days, and the number of live mites were assessed for calculation of the protective value by Equation 1. The test was carried out by one series system.

Row | Structure (SMILES) | mortality at 500 ppm (brown rice planthopper) [%] | pest or weed control at 500 ppm (two-spotted spider mites) [%]
1 | Cc1cc(F)c(-n2nc(OCC(F)(F)C(F)(F)F)c(Cl)c2Cl)cc1SCC(F)(F)F [1-111, 1-{2-fluoro-4-methyl-5-(2,2,2-trifluoroethylthio)phenyl}-4,5-dichloro-3-(2,2,3,3,3-pentafluoropropoxy)pyrazole] | ≥ 90 | ≥ 90
2 | Cc1cc(F)c(-n2nc(OCC(F)(F)C(F)(F)F)cc2C#N)cc1[S+]([O-])CC(F)(F)F (centres unmarked) [1-134, 5-cyano-1-{2-fluoro-4-methyl-5-(2,2,2-trifluoroethylsulfinyl)phenyl}-3-(2,2,3,3,3-pentafluoropropoxy)pyrazole] | ≥ 90 | ≥ 90
3 | Cc1cc(F)c(-n2nc(OCC(F)(F)C(F)(F)F)cc2C(=O)O)cc1SCC(F)(F)F [1-145, 1-{2-fluoro-4-methyl-5-(2,2,2-trifluoroethylthio)phenyl}-3-(2,2,3,3,3-pentafluoropropoxy)pyrazole-5-carboxylic acid] | ≥ 90 | –
4 | Cc1cc(F)c(-n2nc(OCC(F)(F)C(F)(F)F)cc2CO)cc1SCC(F)(F)F [1-201, 1-{2-fluoro-4-methyl-5-(2,2,2-trifluoroethylthio)phenyl}-5-hydroxymethyl-3-(2,2,3,3,3-pentafluoropropoxy)pyrazole] | ≥ 90 | ≥ 90
5 | Cc1cc(F)c(-n2nc(OCCC(F)(F)F)cc2C)cc1SCC(F)(F)F [1-249, 1-{2-fluoro-4-methyl-5-(2,2,2-trifluoroethylthio)phenyl}-5-methyl-3-(3,3,3-trifluoropropoxy)pyrazole] | ≥ 90 | ≥ 90
6 | Cc1cc(F)c(-n2cc(Cl)c(OC(F)(F)C(F)OC(F)(F)F)n2)cc1SCC(F)(F)F (centres unmarked) [1-289, 4-chloro-1-{2-fluoro-4-methyl-5-(2,2,2-trifluoroethylthio)phenyl}-3-{1,1,2-trifluoro-2-(trifluoromethoxy)ethoxy}pyrazole] | ≥ 90 | ≥ 90
7 | Cc1cc(F)c(-n2cc(Cl)c(OC(F)(F)C(F)OC(F)(F)F)n2)cc1[S+]([O-])CC(F)(F)F (centres unmarked) [1-290, 4-chloro-1-{2-fluoro-4-methyl-5-(2,2,2-trifluoroethylsulfinyl)phenyl}-3-{1,1,2-trifluoro-2-(trifluoromethoxy)ethoxy}pyrazole] | ≥ 90 | ≥ 90
8 | Cc1cc(F)c(-n2nc(OC(F)(F)C(F)OC(F)(F)F)cc2C#N)cc1[S+]([O-])CC(F)(F)F (centres unmarked) [1-669, 5-cyano-1-{2-fluoro-4-methyl-5-(2,2,2-trifluoroethylsulfinyl)phenyl}-3-{1,1,2-trifluoro-2-(trifluoromethoxy)ethoxy}pyrazole] | ≥ 90 | ≥ 90
9 | Cc1cc(F)c(-n2nc(OC(F)(F)C(F)OC(F)(F)F)cc2C(F)F)cc1[S+]([O-])CC(F)(F)F (centres unmarked) [1-1532, 5-difluoromethyl-1-{2-fluoro-4-methyl-5-(2,2,2-trifluoroethylsulfinyl)phenyl}-3-{1,1,2-trifluoro-2-(trifluoromethoxy)ethoxy}pyrazole] | ≥ 90 | ≥ 90
10 | Cc1cc(F)c(-n2ccc(Oc3ccc(C(F)(F)F)cc3)n2)cc1[S+]([O-])CC(F)(F)F (centres unmarked) [1-1586, 1-{2-fluoro-4-methyl-5-(2,2,2-trifluoroethylsulfinyl)phenyl}-3-{4-(trifluoromethyl)phenoxy}pyrazole] | ≥ 90 | ≥ 90
11 | Cc1cc(F)c(-n2cc(C#N)c(OC(F)(F)C(F)OC(F)(F)F)n2)cc1[S+]([O-])CC(F)(F)F (centres unmarked) [1-1588, 4-cyano-1-{2-fluoro-4-methyl-5-(2,2,2-trifluoroethylsulfinyl)phenyl}-3-{1,1,2-trifluoro-2-(trifluoromethoxy)ethoxy}pyrazole] | – | ≥ 90
